Measurements taken from US10227344B2, “CK2 inhibitors, compositions and methods thereof” (Polaris Pharmaceuticals, Inc., priority 2016, dated 2019).

Key:
Format in all cases: cell-based
EOL-1 = experiment: Cancer cell panel, cell viability (resazurin): Leukemia, EOL-1; conditions: EOL-1 (Leukemia), 72 hours; labelled drug combined with Example 3
Method: (§1) Cells were plated in 96-well plates and treated for 72 hours with a serially diluted CK2 inhibitor or anti-cancer drug or their combination. The suspension cell lines were treated right after plating, while the adherent cells were allowed to attach overnight prior to the start of the treatment.
(§2) Cell viability was determined by adding resazurin to cell cultures and measuring fluorescence with a plate reader. Relative cell viability was calculated by dividing the cell viability signal from a test sample by that of a non-treated control. […] Bliss Independence and Highest Single Agent models were used to determine if there is synergy, additivity or antagonism between the CK2 inhibitor and an anti-cancer drug.

MDA-MB-453 = experiment: Cancer cell panel, cell viability (resazurin): Breast, MDA-MB-453; conditions: MDA-MB-453 (Breast), 72 hours; labelled drug combined with Example 3
Method: as §1, §2

A2780 = experiment: Cancer cell panel, cell viability (resazurin): Ovarian, A2780; conditions: 72 hours, labelled drug combined with Example 3
Method: as §1, §2

Caki-2 = experiment: Cancer cell panel, cell viability (resazurin): Renal, Caki-2; conditions: Caki-2 (Renal), 72 hours; labelled drug combined with Example 3
H1299 = experiment: Cancer cell panel, cell viability (resazurin): NSCLC, H1299; conditions: 72 hours, labelled drug combined with Example 3
Daudi = experiment: Cancer cell panel, cell viability (resazurin): Burkitt's Lymphoma, Daudi; conditions: 72 hours, labelled drug combined with Example 3
T47D = experiment: Cancer cell panel, cell viability (resazurin): Breast, T47D; conditions: 72 hours, labelled drug combined with Example 3
H2122 = experiment: Cancer cell panel, cell viability (resazurin): NSCLC, H2122; conditions: 72 hours, labelled drug combined with Example 3
Method: as §1, §2

A375 = experiment: Cancer cell panel, cell viability (resazurin): Melanoma, A375; conditions: 72 hours, labelled drug combined with Example 3
H23 = experiment: Cancer cell panel, cell viability (resazurin): NSCLC, H23; conditions: 72 hours, labelled drug combined with Example 3
Method: as §1, §2

HL60 = experiment: Cancer cell panel, cell viability (resazurin): Leukemia, HL60; conditions: 72 hours, labelled drug combined with Example 3
SK-MEL-24 = experiment: Cancer cell panel, cell viability (resazurin): Melanoma, SK-MEL-24; conditions: SK-MEL-24 (Melanoma), 72 hours; labelled drug combined with Example 3
A549 = experiment: Cancer cell panel, cell viability (resazurin): NSCLC, A549; conditions: 72 hours, labelled drug combined with Example 3
Method: as §1, §2

H460 = experiment: Cancer cell panel, cell viability (resazurin): NSCLC, H460; conditions: 72 hours, labelled drug combined with Example 3
HCT116 = experiment: Cancer cell panel, cell viability (resazurin): Colon, HCT116; conditions: 72 hours, labelled drug combined with Example 3
ACHN = experiment: Cancer cell panel, cell viability (resazurin): Renal, ACHN; conditions: 72 hours, labelled drug combined with Example 3
Method: as §1, §2

MDA-MB-231 = experiment: Cancer cell panel, cell viability (resazurin): Breast, MDA-MB-231; conditions: MDA-MB-231 (Breast), 72 hours; labelled drug combined with Example 3
OVCAR-3 = experiment: Cancer cell panel, cell viability (resazurin): Ovarian, OVCAR-3; conditions: OVCAR-3 (Ovarian), 72 hours; labelled drug combined with Example 3
K562 = experiment: Cancer cell panel, cell viability (resazurin): Leukemia, K562; conditions: 72 hours, labelled drug combined with Example 3
Method: as §1, §2

Raji = experiment: Cancer cell panel, cell viability (resazurin): Burkitt's Lymphoma, Raji; conditions: 72 hours, labelled drug combined with Example 3
Ramos = experiment: Cancer cell panel, cell viability (resazurin): Burkitt's Lymphoma, Ramos; conditions: 72 hours, labelled drug combined with Example 3
Caov-3 = experiment: Cancer cell panel, cell viability (resazurin): Ovarian, Caov-3; conditions: Caov-3 (Ovarian), 72 hours; labelled drug combined with Example 3
H1975 = experiment: Cancer cell panel, cell viability (resazurin): NSCLC, H1975; conditions: 72 hours, labelled drug combined with Example 3
Method: as §1, §2

BT-20 = experiment: Cancer cell panel, cell viability (resazurin): Breast, BT-20; conditions: BT-20 (Breast), 72 hours; labelled drug combined with Example 3
Mia-Paca-2 = experiment: Cancer cell panel, cell viability (resazurin): Pancreatic, Mia-Paca-2; conditions: Mia-Paca-2 (Pancreatic), 72 hours; labelled drug combined with Example 3
RPMI8226 = experiment: Cancer cell panel, cell viability (resazurin): multiple myeloma, RPMI8226; conditions: 72 hours, labelled drug combined with Example 3
Method: as §1, §2

SkBr-3 = experiment: Cancer cell panel, cell viability (resazurin): Breast, SkBr-3; conditions: SkBr-3 (Breast), 72 hours; labelled drug combined with Example 3
Method: as §1, §2

PC3 = experiment: Cancer cell panel, cell viability (resazurin): Prostate, PC3; conditions: 72 hours, labelled drug combined with Example 3
Method: as §1, §2

HT29 = experiment: Cancer cell panel, cell viability (resazurin): Colon, HT29; conditions: 72 hours, labelled drug combined with Example 3
Method: as §1, §2

WM-115 = experiment: Cancer cell panel, cell viability (resazurin): Melanoma, WM-115; conditions: WM-115 (Melanoma), 72 hours; labelled drug combined with Example 3
BT-474 = experiment: Cancer cell panel, cell viability (resazurin): Breast, BT-474; conditions: BT-474 (Breast), 72 hours; labelled drug combined with Example 3
DLD-1 = experiment: Cancer cell panel, cell viability (resazurin): Colon, DLD-1; conditions: DLD-1 (Colon), 72 hours; labelled drug combined with Example 3
Method: as §1, §2

BxPC3 = experiment: Cancer cell panel, cell viability (resazurin): Pancreatic, BxPC3; conditions: 72 hours, labelled drug combined with Example 3
Colo205 = experiment: Cancer cell panel, cell viability (resazurin): Colon, Colo205; conditions: 72 hours, labelled drug combined with Example 3
Caki-1 = experiment: Cancer cell panel, cell viability (resazurin): Renal, Caki-1; conditions: Caki-1 (Renal), 72 hours; labelled drug combined with Example 3
Panc-1 = experiment: Cancer cell panel, cell viability (resazurin): Pancreatic, Panc-1; conditions: Panc-1 (Pancreatic), 72 hours; labelled drug combined with Example 3
MDA-MB-157 = experiment: Cancer cell panel, cell viability (resazurin): Breast, MDA-MB-157; conditions: MDA-MB-157 (Breast), 72 hours; labelled drug combined with Example 3
Method: as §1, §2

LoVo = experiment: Cancer cell panel, cell viability (resazurin): Colon, LoVo; conditions: 72 hours, labelled drug combined with Example 3
SKOV-3 = experiment: Cancer cell panel, cell viability (resazurin): Ovarian, SKOV-3; conditions: SKOV-3 (Ovarian), 72 hours; labelled drug combined with Example 3
MCF7 = experiment: Cancer cell panel, cell viability (resazurin): Breast, MCF7; conditions: 72 hours, labelled drug combined with Example 3
U266 = experiment: Cancer cell panel, cell viability (resazurin): multiple myeloma, U266; conditions: 72 hours, labelled drug combined with Example 3

## CC(C)C[C@H](NC(=O)[C@H](Cc1ccccc1)NC(=O)c1cnccn1)B(O)O [Bortezomib, bortezomib]
EOL-1
  synergy, additivity or antagonism of the combination of Example 3 with the anti-cancer drug: + + (Slight synergy relative to each agent alone (CI = 0.75-0.9 by Bliss Independence Model))
MDA-MB-453
  synergy, additivity or antagonism of the combination of Example 3 with the anti-cancer drug: + (Additive relative to each agent alone (CI = 0.9-1 by Bliss Independence Model and <0.9 by Highest Single Agent Model))
A2780
  synergy, additivity or antagonism of the combination of Example 3 with the anti-cancer drug: + + (Slight synergy relative to each agent alone (CI = 0.75-0.9 by Bliss Independence Model))
Caki-2
  synergy, additivity or antagonism of the combination of Example 3 with the anti-cancer drug: + (Additive relative to each agent alone (CI = 0.9-1 by Bliss Independence Model and <0.9 by Highest Single Agent Model))
H1299
  synergy, additivity or antagonism of the combination of Example 3 with the anti-cancer drug: + (Additive relative to each agent alone (CI = 0.9-1 by Bliss Independence Model and <0.9 by Highest Single Agent Model))
Daudi
  synergy, additivity or antagonism of the combination of Example 3 with the anti-cancer drug: + (Additive relative to each agent alone (CI = 0.9-1 by Bliss Independence Model and <0.9 by Highest Single Agent Model))
T47D
  synergy, additivity or antagonism of the combination of Example 3 with the anti-cancer drug: + (Additive relative to each agent alone (CI = 0.9-1 by Bliss Independence Model and <0.9 by Highest Single Agent Model))
H2122
  synergy, additivity or antagonism of the combination of Example 3 with the anti-cancer drug: + (Additive relative to each agent alone (CI = 0.9-1 by Bliss Independence Model and <0.9 by Highest Single Agent Model))
A375
  synergy, additivity or antagonism of the combination of Example 3 with the anti-cancer drug: + (Additive relative to each agent alone (CI = 0.9-1 by Bliss Independence Model and <0.9 by Highest Single Agent Model))
H23
  synergy, additivity or antagonism of the combination of Example 3 with the anti-cancer drug: + (Additive relative to each agent alone (CI = 0.9-1 by Bliss Independence Model and <0.9 by Highest Single Agent Model))
HL60
  synergy, additivity or antagonism of the combination of Example 3 with the anti-cancer drug: + (Additive relative to each agent alone (CI = 0.9-1 by Bliss Independence Model and <0.9 by Highest Single Agent Model))
SK-MEL-24
  synergy, additivity or antagonism of the combination of Example 3 with the anti-cancer drug: + + + (Synergy relative to each agent alone (CI = 0.4-0.74 by Bliss Independence Model))
A549
  synergy, additivity or antagonism of the combination of Example 3 with the anti-cancer drug: + + + (Synergy relative to each agent alone (CI = 0.4-0.74 by Bliss Independence Model))
H460
  synergy, additivity or antagonism of the combination of Example 3 with the anti-cancer drug: + + (Slight synergy relative to each agent alone (CI = 0.75-0.9 by Bliss Independence Model))
HCT116
  synergy, additivity or antagonism of the combination of Example 3 with the anti-cancer drug: + + (Slight synergy relative to each agent alone (CI = 0.75-0.9 by Bliss Independence Model))
ACHN
  synergy, additivity or antagonism of the combination of Example 3 with the anti-cancer drug: + + (Slight synergy relative to each agent alone (CI = 0.75-0.9 by Bliss Independence Model))
MDA-MB-231
  synergy, additivity or antagonism of the combination of Example 3 with the anti-cancer drug: + (Additive relative to each agent alone (CI = 0.9-1 by Bliss Independence Model and <0.9 by Highest Single Agent Model))
OVCAR-3
  synergy, additivity or antagonism of the combination of Example 3 with the anti-cancer drug: + (Additive relative to each agent alone (CI = 0.9-1 by Bliss Independence Model and <0.9 by Highest Single Agent Model))
K562
  synergy, additivity or antagonism of the combination of Example 3 with the anti-cancer drug: + (Additive relative to each agent alone (CI = 0.9-1 by Bliss Independence Model and <0.9 by Highest Single Agent Model))
Raji
  synergy, additivity or antagonism of the combination of Example 3 with the anti-cancer drug: + + (Slight synergy relative to each agent alone (CI = 0.75-0.9 by Bliss Independence Model))
Ramos
  synergy, additivity or antagonism of the combination of Example 3 with the anti-cancer drug: + (Additive relative to each agent alone (CI = 0.9-1 by Bliss Independence Model and <0.9 by Highest Single Agent Model))
Caov-3
  synergy, additivity or antagonism of the combination of Example 3 with the anti-cancer drug: + (Additive relative to each agent alone (CI = 0.9-1 by Bliss Independence Model and <0.9 by Highest Single Agent Model))
H1975
  synergy, additivity or antagonism of the combination of Example 3 with the anti-cancer drug: + (Additive relative to each agent alone (CI = 0.9-1 by Bliss Independence Model and <0.9 by Highest Single Agent Model))
BT-20
  synergy, additivity or antagonism of the combination of Example 3 with the anti-cancer drug: + + (Slight synergy relative to each agent alone (CI = 0.75-0.9 by Bliss Independence Model))
Mia-Paca-2
  synergy, additivity or antagonism of the combination of Example 3 with the anti-cancer drug: + + (Slight synergy relative to each agent alone (CI = 0.75-0.9 by Bliss Independence Model))
RPMI8226
  synergy, additivity or antagonism of the combination of Example 3 with the anti-cancer drug: + (Additive relative to each agent alone (CI = 0.9-1 by Bliss Independence Model and <0.9 by Highest Single Agent Model))
SkBr-3
  synergy, additivity or antagonism of the combination of Example 3 with the anti-cancer drug: + (Additive relative to each agent alone (CI = 0.9-1 by Bliss Independence Model and <0.9 by Highest Single Agent Model))
PC3
  synergy, additivity or antagonism of the combination of Example 3 with the anti-cancer drug: + (Additive relative to each agent alone (CI = 0.9-1 by Bliss Independence Model and <0.9 by Highest Single Agent Model))
HT29
  synergy, additivity or antagonism of the combination of Example 3 with the anti-cancer drug: + (Additive relative to each agent alone (CI = 0.9-1 by Bliss Independence Model and <0.9 by Highest Single Agent Model))
WM-115
  synergy, additivity or antagonism of the combination of Example 3 with the anti-cancer drug: + + (Slight synergy relative to each agent alone (CI = 0.75-0.9 by Bliss Independence Model))
BT-474
  synergy, additivity or antagonism of the combination of Example 3 with the anti-cancer drug: + + (Slight synergy relative to each agent alone (CI = 0.75-0.9 by Bliss Independence Model))
DLD-1
  synergy, additivity or antagonism of the combination of Example 3 with the anti-cancer drug: + + + (Synergy relative to each agent alone (CI = 0.4-0.74 by Bliss Independence Model))
BxPC3
  synergy, additivity or antagonism of the combination of Example 3 with the anti-cancer drug: + + + (Synergy relative to each agent alone (CI = 0.4-0.74 by Bliss Independence Model))
Colo205
  synergy, additivity or antagonism of the combination of Example 3 with the anti-cancer drug: − (Slightly antagonistic relative to each agent alone (CI = 1.1-1.2 by Highest Single Agent Model))
Caki-1
  synergy, additivity or antagonism of the combination of Example 3 with the anti-cancer drug: + (Additive relative to each agent alone (CI = 0.9-1 by Bliss Independence Model and <0.9 by Highest Single Agent Model))
Panc-1
  synergy, additivity or antagonism of the combination of Example 3 with the anti-cancer drug: + (Additive relative to each agent alone (CI = 0.9-1 by Bliss Independence Model and <0.9 by Highest Single Agent Model))
MDA-MB-157
  synergy, additivity or antagonism of the combination of Example 3 with the anti-cancer drug: + + + (Synergy relative to each agent alone (CI = 0.4-0.74 by Bliss Independence Model))
LoVo
  synergy, additivity or antagonism of the combination of Example 3 with the anti-cancer drug: + (Additive relative to each agent alone (CI = 0.9-1 by Bliss Independence Model and <0.9 by Highest Single Agent Model))
SKOV-3
  synergy, additivity or antagonism of the combination of Example 3 with the anti-cancer drug: + + + (Synergy relative to each agent alone (CI = 0.4-0.74 by Bliss Independence Model))
MCF7
  synergy, additivity or antagonism of the combination of Example 3 with the anti-cancer drug: − − (Antagonistic relative to each agent alone (CI = 1.2-1.49 by Highest Single Agent Model))
U266
  synergy, additivity or antagonism of the combination of Example 3 with the anti-cancer drug: + (Additive relative to each agent alone (CI = 0.9-1 by Bliss Independence Model and <0.9 by Highest Single Agent Model))
